Data set [1] has as its system Mus musculus. Nature of the data set: Anti-NASH activity in western diet and CCl4-induced nonalcoholic steatohepatitis C57BL/6 mouse assessed as reduction in IL-1beta level at 20 mg/kg, po administered for 12 weeks starting from week 8 and change in dose for every 5 days by ELISA. Type of data set: functional, organism-based. The note with it: time 4.0 weeks.
Data set [2] in a line: Metabolic stability in Beagle dog liver microsomes assessed as parent compound remaining incubated for 1 hr by LC-MS analysis. The data set is classed as ADME, Canis lupus familiaris, Microsome. The note with it: read-out: Stability.
Data set [3] concerns the target T1, Peroxisome proliferator-activated receptor gamma (Homo sapiens, UniProt P37231).
T1 sequence (P37231 whole entry): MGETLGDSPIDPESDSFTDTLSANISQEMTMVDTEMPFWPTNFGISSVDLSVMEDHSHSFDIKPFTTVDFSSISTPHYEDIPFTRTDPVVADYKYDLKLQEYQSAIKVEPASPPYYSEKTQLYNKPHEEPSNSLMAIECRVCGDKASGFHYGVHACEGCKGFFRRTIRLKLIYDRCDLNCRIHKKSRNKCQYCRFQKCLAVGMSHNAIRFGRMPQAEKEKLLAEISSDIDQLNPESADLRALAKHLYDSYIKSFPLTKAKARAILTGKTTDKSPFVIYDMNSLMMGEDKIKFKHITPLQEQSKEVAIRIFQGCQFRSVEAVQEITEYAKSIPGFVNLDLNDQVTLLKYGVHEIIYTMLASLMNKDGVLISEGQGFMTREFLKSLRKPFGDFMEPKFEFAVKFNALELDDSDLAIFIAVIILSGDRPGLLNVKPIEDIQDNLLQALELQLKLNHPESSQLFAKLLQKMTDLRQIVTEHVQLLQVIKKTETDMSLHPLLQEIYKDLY
Nature of the data set: Inhibition of PPARgamma (unknown origin) transfected in HEK293 cells incubated for 18 hrs in presence of rosiglitazone by dual luciferase reporter assay. Type of data set: cell-based.

The nature of data set [4]: Agonist activity at PPARbeta/delta (unknown origin) transfected in HepG2 cells incubated for 18 hrs by renilla/firefly based dual-glo luciferase assay. The data set is classed as cell-based. Particulars: Homo sapiens, HepG2, 18 h.
The next data set concerns the target T2, Bile acid receptor (Homo sapiens, UniProt Q96RI1).
T2 sequence (Q96RI1 whole entry): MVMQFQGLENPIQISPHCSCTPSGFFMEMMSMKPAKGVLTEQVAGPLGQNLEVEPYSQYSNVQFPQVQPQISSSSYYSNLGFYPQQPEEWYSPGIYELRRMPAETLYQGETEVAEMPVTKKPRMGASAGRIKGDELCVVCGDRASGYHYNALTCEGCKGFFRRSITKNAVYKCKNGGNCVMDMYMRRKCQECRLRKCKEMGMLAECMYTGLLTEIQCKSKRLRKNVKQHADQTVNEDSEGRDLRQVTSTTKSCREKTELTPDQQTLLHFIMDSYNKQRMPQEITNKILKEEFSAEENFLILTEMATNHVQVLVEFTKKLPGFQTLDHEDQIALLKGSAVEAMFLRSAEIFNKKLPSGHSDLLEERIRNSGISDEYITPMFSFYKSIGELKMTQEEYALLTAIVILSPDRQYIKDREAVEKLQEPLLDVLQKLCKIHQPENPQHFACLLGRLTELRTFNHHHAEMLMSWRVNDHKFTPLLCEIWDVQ
Nature of the data set: Agonist activity at FXR (unknown origin) expressed in human HepG2 cells co-transfected with human RXR assessed as luciferase activity incubated for 24 hrs by cell-based luciferase assay.

Data set [5] relates to Mus musculus. Nature of the data set: Anti-NASH activity in western diet and CCl4-induced nonalcoholic steatohepatitis C57BL/6 mouse assessed as alleviation of hepatic steatosis at 20 mg/kg, po administered for 12 weeks starting from week 8 and change in dose for every 5 days. Type of data set: functional, organism-based. The note with it: time 4.0 weeks.
The nature of data set [6]: Subacute toxicity in ICR mouse assessed as changes in serum BUN level at 500 mg/kg/day, po administered for 14 days. The note with it: in vivo, 336 h, time 14 day. Type of data set: organism-based.
Data set [7] is described as follows: Subacute toxicity in ICR mouse assessed as changes in animal growth at 500 mg/kg/day, po administered for 14 days. Type of data set: organism-based. Particulars: in vivo, 336 h, time 14 day.
The nature of data set [8]: Subacute toxicity in ICR mouse assessed as changes in serum AST level at 500 mg/kg/day, po administered for 14 days. The data set is classed as organism-based. Particulars: in vivo, 336 h, time 14 day.
The nature of data set [9]: Subacute toxicity in ICR mouse assessed as changes in serum ALT level at 500 mg/kg/day, po administered for 14 days. The data set is classed as organism-based. The note with it: in vivo, 336 h, time 14 day.
Data set [10] deals with Mus musculus. Nature of the data set: Anti-NASH activity in western diet and CCl4-induced nonalcoholic steatohepatitis C57BL/6 mouse assessed as downregulation of IL-1beta expression level at 20 mg/kg, po administered for 12 weeks starting from week 8 and change in dose for every 5 days by ELISA. The data set is classed as functional, organism-based. The note with it: time 4.0 weeks.

The nature of data set [11]: Drug concentration in C57BL/6 mouse plasma at 20 mg/kg, po administered for 5 days and measured after 1 hr post final dose by LC-MS analysis. Type of data set: ADME, organism-based. Particulars: time 5 day.
In a further data set the target is Estrogen receptor (Homo sapiens, UniProt P03372). Nature of the data set: Activation of Gal-DBD and NHRLBD fused ERalpha (unknown origin) transfected in African green monkey CV-1 cells by luciferase reporter assay. Type of data set: cell-based.
Estrogen receptor, sequence (P03372 whole entry, the tested form may be a part): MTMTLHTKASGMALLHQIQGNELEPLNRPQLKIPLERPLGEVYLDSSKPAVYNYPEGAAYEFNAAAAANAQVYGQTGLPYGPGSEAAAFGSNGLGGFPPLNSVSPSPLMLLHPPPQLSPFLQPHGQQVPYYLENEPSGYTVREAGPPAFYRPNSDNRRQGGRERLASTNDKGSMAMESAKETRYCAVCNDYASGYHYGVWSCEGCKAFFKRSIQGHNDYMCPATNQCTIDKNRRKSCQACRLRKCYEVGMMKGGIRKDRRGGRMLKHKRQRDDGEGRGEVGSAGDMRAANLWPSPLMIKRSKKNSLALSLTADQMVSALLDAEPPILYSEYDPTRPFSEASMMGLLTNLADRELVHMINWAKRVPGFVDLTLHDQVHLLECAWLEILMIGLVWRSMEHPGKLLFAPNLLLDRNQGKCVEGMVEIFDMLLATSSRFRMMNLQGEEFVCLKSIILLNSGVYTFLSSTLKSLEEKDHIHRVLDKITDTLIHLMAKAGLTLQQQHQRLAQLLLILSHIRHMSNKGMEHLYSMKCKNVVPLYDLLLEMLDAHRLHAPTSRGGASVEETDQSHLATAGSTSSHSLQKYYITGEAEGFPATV
Data set [12] deals with Mus musculus. Nature of the data set: Anti-NASH activity in western diet and CCl4-induced nonalcoholic steatohepatitis C57BL/6 mouse assessed as downregulation of TNFalpha expression level at 20 mg/kg, po administered for 12 weeks starting from week 8 and change in dose for every 5 days by ELISA. Type of data set: functional, organism-based. The note with it: time 4.0 weeks.

For data set [13], the target named is T3, Bile acid receptor (Mus musculus) (UniProt Q60641).
T3 sequence (whole entry): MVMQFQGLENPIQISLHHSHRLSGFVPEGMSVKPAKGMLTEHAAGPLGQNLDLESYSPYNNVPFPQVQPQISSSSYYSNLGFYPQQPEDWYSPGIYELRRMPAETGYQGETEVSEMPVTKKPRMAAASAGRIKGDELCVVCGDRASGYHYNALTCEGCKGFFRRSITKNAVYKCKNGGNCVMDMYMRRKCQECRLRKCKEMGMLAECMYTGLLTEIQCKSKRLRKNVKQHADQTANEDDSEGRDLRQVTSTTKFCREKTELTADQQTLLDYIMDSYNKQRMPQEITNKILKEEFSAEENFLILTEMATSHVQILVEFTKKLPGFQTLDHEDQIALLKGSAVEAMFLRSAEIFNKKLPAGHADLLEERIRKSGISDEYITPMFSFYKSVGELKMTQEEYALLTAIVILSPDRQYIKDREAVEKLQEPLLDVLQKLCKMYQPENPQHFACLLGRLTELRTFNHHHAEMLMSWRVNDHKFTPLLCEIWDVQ
Nature of the data set: In vivo activation of FXR pathway in western diet and CCl4-induced nonalcoholic steatohepatitis C57BL/6 mouse model assessed as downregulation of CYP7A1 mRNA level in […] at 20 mg/kg, po administered for 12 weeks starting from week 8 and change in dose for every 5 days. The data set is classed as functional, organism-based. The note with it: time 4.0 weeks.

Data set [14] deals with Mus musculus. Nature of the data set: Anti-NASH activity in western diet and CCl4-induced nonalcoholic steatohepatitis C57BL/6 mouse assessed as reduction in liver weight ratio at 20 mg/kg, po administered for 12 weeks starting from week 8 and change in dose for every 5 days. Type of data set: functional, organism-based. Particulars: time 4.0 weeks.
In data set [15] the target is Retinoic acid receptor alpha (Homo sapiens, UniProt P10276). Nature of the data set: Activation of Gal-DBD and NHRLBD fused RARalpha (unknown origin) transfected in African green monkey CV-1 cells by luciferase reporter assay. Type of data set: cell-based.
Retinoic acid receptor alpha, sequence (P10276 whole entry, the tested form may be a part): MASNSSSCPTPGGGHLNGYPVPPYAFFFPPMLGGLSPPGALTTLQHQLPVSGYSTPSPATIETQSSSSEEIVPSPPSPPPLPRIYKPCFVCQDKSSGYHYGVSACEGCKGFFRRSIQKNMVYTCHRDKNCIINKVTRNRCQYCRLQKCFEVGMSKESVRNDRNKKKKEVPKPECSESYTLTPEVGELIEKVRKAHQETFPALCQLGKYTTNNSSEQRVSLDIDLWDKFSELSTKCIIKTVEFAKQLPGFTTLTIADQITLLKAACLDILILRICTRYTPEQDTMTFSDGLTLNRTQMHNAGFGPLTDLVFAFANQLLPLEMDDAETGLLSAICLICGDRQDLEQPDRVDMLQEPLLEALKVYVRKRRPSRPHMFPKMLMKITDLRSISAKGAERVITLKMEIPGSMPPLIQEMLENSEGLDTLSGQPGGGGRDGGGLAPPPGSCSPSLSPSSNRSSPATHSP
The target in data set [16] is Retinoic acid receptor gamma (Homo sapiens, UniProt P13631). Nature of the data set: Activation of Gal-DBD and NHRLBD fused RARgamma (unknown origin) transfected in African green monkey CV-1 cells by luciferase reporter assay. The data set is classed as cell-based.
Retinoic acid receptor gamma, sequence (P13631 whole entry, the tested form may be a part): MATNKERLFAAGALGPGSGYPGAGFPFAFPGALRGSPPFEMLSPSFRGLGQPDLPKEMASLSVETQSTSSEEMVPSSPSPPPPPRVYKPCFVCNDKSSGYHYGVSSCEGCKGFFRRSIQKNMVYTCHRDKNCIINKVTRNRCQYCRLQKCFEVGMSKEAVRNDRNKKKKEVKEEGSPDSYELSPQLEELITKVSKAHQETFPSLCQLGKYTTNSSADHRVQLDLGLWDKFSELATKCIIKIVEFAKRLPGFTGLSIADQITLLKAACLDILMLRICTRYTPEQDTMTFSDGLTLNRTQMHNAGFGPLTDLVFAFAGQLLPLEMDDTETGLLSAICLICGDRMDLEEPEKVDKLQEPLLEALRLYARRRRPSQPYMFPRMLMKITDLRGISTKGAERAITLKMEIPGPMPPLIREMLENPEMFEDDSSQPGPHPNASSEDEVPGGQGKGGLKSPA

pEC50, pIC50: −log10 of the molar value. The source made the active and inactive calls. The calls are words filed in the database; no cut-off is given here.

On to `O=C(O)C1(c2cccc(-c3ccc(OCc4c(-c5c(Cl)cccc5Cl)noc4C4CC4)cc3)c2)CC1`, for which the result (with Mus musculus [1]; in the data set on Mus musculus [5]; with Mus musculus [10]; with Mus musculus [12]; in data set [13]; in the data set with Mus musculus [14]) was Active. Moreover, the remaining at 1 h in data set [2] was found to be 57.4%. Besides, the pIC50 in [3] was less than 5.00. Further, the negative-log EC50 (pEC50) is less than 5.00 in [4]; 6.31 at Bile acid receptor; less than 5.00 on Estrogen receptor; less than 5.00 in data set [15]; less than 5.00 in [16]. Moreover, the Activity entry in data set [6], in data set [7], in [8] and in data set [9] was “Non-Toxic” each time. This compound also had a concentration at 120 h in data set [11] of 0.029 µg/mL.

The values above are taken from ChEMBL document CHEMBL5338751, “Discovery of the First-in-Class Intestinal Restricted FXR and FABP1 Dual Modulator ZLY28 for the Treatment of Nonalcoholic Fatty Liver Disease” (J Med Chem, 2023).
